{"source": "patent US20070231358A1", "about": "“INTRAVAGINAL TREATMENT OF VAGINAL INFECTIONS WITH METRONIDAZOLE COMPOSITIONS” (Tolmar, Inc., priority 2004, published 2007)", "origin": "cited, not measured here", "key": {"[1]": {"tested_on": "bacterial vaginosis", "details": "oral route; 400 to 500 mg twice daily for three to seven days or 2 grams single dose"}, "[2]": {"tested_on": "bacterial vaginosis", "details": "for Cured patients out of 19: four weeks after initiation; for Cure rate (%): four weeks after initiation of therapy"}, "[3]": {"details": "after a single oral dose of 2 grams"}, "[4]": {"details": "oral 400 mg morning and evening for seven days"}, "[5]": {"details": "vaginal insert 500 mg every evening for seven days"}}, "note": "Where two headings read alike, the source gives them in different places.", "data": [{"smiles": "Cc1ncc([N+](=O)[O-])n1CCO", "note": "[metronidazole, 1-(2-hydroxyethyl)-2-methyl-5-nitroimidazole]", "values": [{"measurement": "Cure rates", "setting": "[1]", "result": "80-90%"}, {"measurement": "Side effects", "setting": "[2]; intravaginal use as the 500 mg insert", "result": "No side effects were reported"}, {"measurement": "Cured patients out of 19", "setting": "[2]; [4]", "result": 14}, {"measurement": "Cure rate (%)", "setting": "[2]; [4]", "result": 74, "unit": "%"}, {"measurement": "Cured patients out of 19", "setting": "[2]; [5]", "result": 15}, {"measurement": "Cure rate (%)", "setting": "[2]; [5]", "result": 79, "unit": "%"}, {"measurement": "Lactate-producing microorganisms (Lactobacilli and aerobic Streptococci) after treatment", "setting": "[2]; vaginal versus oral treatment", "result": "found more frequently after vaginal than after oral treatment"}, {"measurement": "Concentration of metronidazole in the vaginal fluid", "setting": "[3]", "result": "low concentration"}]}]}
